Assay results from the NIST ThermoML archive (doi:10.1021/je060416d).
± gives the expanded uncertainty stated by the source.

Conditions: Liquid, Vibrating wire viscometry

C1CCCC1 [cyclopentane]
viscosity (273.15 K, 100 kPa): 0.5628 ± 0.013 mPa·s | viscosity (273.15 K, 10000 kPa): 0.6148 ± 0.014 mPa·s | viscosity (273.15 K, 30000 kPa): 0.7203 ± 0.016 mPa·s | viscosity (273.15 K, 40000 kPa): 0.7767 ± 0.017 mPa·s | viscosity (293.15 K, 100 kPa): 0.4413 ± 0.01 mPa·s | viscosity (293.15 K, 10000 kPa): 0.4827 ± 0.011 mPa·s | viscosity (293.15 K, 30000 kPa): 0.5708 ± 0.013 mPa·s | viscosity (293.15 K, 40000 kPa): 0.6167 ± 0.014 mPa·s | viscosity (298.15 K, 100 kPa): 0.4167 ± 0.0097 mPa·s | viscosity (298.15 K, 10000 kPa): 0.4583 ± 0.01 mPa·s | viscosity (298.15 K, 30000 kPa): 0.5409 ± 0.012 mPa·s | viscosity (298.15 K, 40000 kPa): 0.5846 ± 0.013 mPa·s | viscosity (313.15 K, 10000 kPa): 0.392 ± 0.009 mPa·s | viscosity (313.15 K, 30000 kPa): 0.4646 ± 0.011 mPa·s | viscosity (313.15 K, 45000 kPa): 0.5222 ± 0.012 mPa·s | viscosity (333.15 K, 10000 kPa): 0.3247 ± 0.008 mPa·s | viscosity (333.15 K, 30000 kPa): 0.3882 ± 0.0092 mPa·s | viscosity (333.15 K, 45000 kPa): 0.4364 ± 0.01 mPa·s | viscosity (353.15 K, 15000 kPa): 0.2868 ± 0.0073 mPa·s | viscosity (353.15 K, 30000 kPa): 0.3291 ± 0.0081 mPa·s | viscosity (353.15 K, 45000 kPa): 0.3727 ± 0.0089 mPa·s
